Earlier results, collected in patent US9029390B2, “Oral composition containing an antiplatelet agent of the thienopyridine family in the form of free base” (CLL Pharma, priority 2008, dated 2015).

Experiments:
[1] = patients who received clopidogrel, study CAPRIE

Structure (SMILES) | solubility in water | frequency of gastro-intestinal bleedings [1] [%] | gastro-intestinal bleedings having required a hospitalization [1] [%]
COC(=O)[C@H](c1ccccc1Cl)N1CCc2sccc2C1 [clopidogrel free base, clopidogrel] | almost null |  | 
COC(=O)[C@H](c1ccccc1Cl)N1CCc2sccc2C1 [clopidogrel] |  | 2.0 | 0.7
